Measurements taken from publication PMC9925730, “Controlled sequential in situ self-assembly and disassembly of a fluorogenic cisplatin prodrug for cancer theranostics” (Nature Communications, 2023).
Values joined by “and” are separate entries in the source; they are usually repeats but may differ in a detail not shown here. Equal values may be shown once.

Key:
[1] = Urine and faeces analysis by ICP-OES (Pt element); assay type: in vivo, mice; set-up: Pt in urine / Pt in feces: unit not given beside the values
Procedure: page 47: determined using ELISA kits according to manufacturer 's protocol. Determination of the blood circulation half-life. […], or CDDP (at a dose of 2.25 mg kg-1 Pt) was i.v. injected into healthy female BALB/c nude mice (6-8 weeks old). […] The collected blood was digested with concentrated HNO3 (65-70%, 2 mL) and HCl (36~38%, 1 mL) at 90 °C overnight. The residues were then diluted with 5 mL 2% HNO3 and 5% HCl solution, and the concentrations of Pt element were determined by ICP-OES, which were further applied to calculate the contents of Pt element in the blood. The plot of the percentage of Pt element remained in the blood versus injection time to yield the pharmacokinetic time. Urine and Faeces analysis. […] Urine and faeces were collected at 2 (for 0-2 h), 4 (for 2-4 h), 8 (for 4- 8 h) and 12 h (for […]), which were diluted in methanol and centrifuged at 3,600 × g for 10 min, followed by filtering via a 0.22 μm syringe filter. The solutions were analyzed by HPLC (660 nm detection) to characterize all the mCy-containing compounds. Using the established standard curves for […] Cy-COOH, the amount of each compound in the urine and faeces could be calculated, which were further applied to determine the percentage of them in the urine and faeces. The data were summarized in Supplementary Tables 5-8. […] Urine and faeces were collected and weighed. The urine and faeces were digested with concentrated HNO3 (65~70%) and HCl (36~38%) at 90 °C for 24 h. The solution was diluted to 5 mL 2% HNO3 and 5% HCl solution, and the concentration of Pt element was measured by ICP-OES, which was further applied to calculate the percentage of Pt in corresponding urine and faeces. The data were summarized in Supplementary Tables 9 and 10. 47

[2] = Urine and faeces analysis by ICP-OES (Pt element); assay type: in vivo, mice; set-up: Pt in urine / Pt in feces: unit not given beside the values; remark: listed apart in the source
[3] = General design summary of signals and cytotoxicity (Fig. 1a)
Source text: P-CyPt is designed to (1) offer activatable near-infrared (NIR) FL and PA signals for bimodality imaging through ALP-mediated in situ self-assembly and (2) release CDDP for on-demand therapy via GSH-triggered disassembly (Fig. 1a). […] After systemic administration, P-CyPt as a small molecule can extravasate and penetrate deeply into tumor tissues (Fig. 1b). In tumor tissues that are membrane-bound ALP positive, rapid dephosphorylation of P-CyPt by the membrane-bound ALP generates CyPt, switching on NIR FL (λem = 710 nm) and PA signals (λ = 700 nm); moreover, CyPt with increased hydrophobicity is susceptible to self-assembly into Pt(IV) nanoparticles (Pt^IVNPs), which turns on another PA signal (λ = 750 nm) resulting from the aggregation-caused bathochromic shift. The on-site formed Pt^IVNPs can anchor on the cell membranes, which attenuate diffusion, prolong retention, and enhance translocation into cells[32],[33]. Within tumor cells, the abundant endogenous GSH can reduce Pt(IV) into Pt(II), producing negatively charged Cy-COOH that promotes NPs disassembly and accelerates release of CDDP intracellularly. This process dramatically raises intracellular CDDP’s concentration while depletes GSH’s level to effectively kill tumor cells. Moreover, the disassembly of Pt^IVNPs into Cy-COOH further increases NIR FL (called as “ON-ON”) as the aggregation-caused quenching (ACQ) effect is eliminated; however, the PA signal at 750 nm is turned off but the PA signal at 700 nm is kept at “ON” state. The sequential switches in NIR FL and PA bimodal imaging signals can allow P-CyPt to reliably monitor the ALP-triggered in situ self-assembly and GSH-driven disassembly process in vivo, facilitating to guide precise chemotherapy of tumors.

[4] = Body weight of mice with orthotopic HepG2/Luc liver tumors; assay type: in vivo; conditions: individual samples, in g (unit assumed)
[5] = i.v. 2.25 mg kg-1 Pt, 0-2 h, ICP-OES

With `CC1(C)C(/C=C/C2=C3Oc4cc(O)c(Cl)cc4C=C3CCC2)=[N+](CCCNC(=O)[C@@H](Cc2ccccc2)NC(=O)[C@@H](Cc2ccccc2)NC(=O)CCC(=O)[O][Pt]([NH2])([NH2])([OH])([Cl])[Cl])c2ccccc21` [CyPt] the “Percentage of Pt element excreted to the faeces” value (shortened to “Percentage … to the faeces”) ([1]; 2-4 h) was 16.51 ± 1.34%, the “Percentage … to the faeces” value ([1]; 4-8 h) was 21.52 ± 1.73% and the “Percentage … to the faeces” value [1, 5] was 0.63 ± 0.21%. The “Percentage … to the faeces” value ([2]; 8-12 h) was 3.69 ± 0.77%, the Cytotoxicity [3] was “Low” and the “FL at 710 nm” value [3] was “High”. For the same compound, the “PA at 700 nm” value [3] was “High” and the “PA at 750 nm” value [3] was “Low”.

For `[NH2][Pt]([NH2])([Cl])[Cl]` [CDDP, cisplatin], the “Percentage … to the faeces” value ([1]; 2-4 h) was 2.60 ± 0.45%, the “Percentage of Pt element excreted to the urine” value (“Percentage … to the urine” below) ([1]; 2-4 h) was 10.94 ± 1.14% and the “Percentage … to the faeces” value ([1]; 4-8 h) was 4.55 ± 0.60%. The “Percentage … to the urine” value ([1]; 4-8 h) was 5.45 ± 0.94%, the “Percentage … to the urine” value ([1]; 8-12 h) was 3.48 ± 0.58% and the Pt in urine ([1]; Fig.6g, 0-2 h, mean of 3 mice) was 15.456. The Pt in urine ([1]; Fig.6g, 0-2 h, single mice) was 14.877 and 18.189 and 13.302, the Pt in urine ([1]; Fig.6g, 2-4 h, mean of 3 mice) was 10.936 and the Pt in urine ([1]; Fig.6g, 2-4 h, single mice) was 10.576 and 12.209 and 10.023. For the same compound, the Pt in urine ([1]; Fig.6g, 4-8 h, mean of 3 mice) was 5.452, the Pt in urine ([1]; Fig.6g, 4-8 h, single mice) was 5.332 and 6.452 and 4.572 and the Pt in urine ([1]; Fig.6g, 8-12 h, mean of 3 mice) was 3.482. For the same compound, the Pt in feces ([1]; Fig.6h, 0-2 h, mean of 3 mice) was 0.193, the Pt in feces ([1]; Fig.6h, 0-2 h, single mice) was 0.190 and 0.242 and 0.148 and the Pt in feces ([1]; Fig.6h, 2-4 h, mean of 3 mice) was 2.596. For the same compound, the Pt in feces ([1]; Fig.6h, 2-4 h, single mice) was 2.468 and 3.099 and 2.222, the Pt in feces ([1]; Fig.6h, 4-8 h, mean of 3 mice) was 4.548 and the Pt in feces ([1]; Fig.6h, 4-8 h, single mice) was 4.452 and 5.187 and 4.005. The Pt in feces ([1]; Fig.6h, 8-12 h, mean of 3 mice) was 2.704, the “Pt accumulatively cleared (urine + faeces)” value ([1]; during 12 h) was ~ 45.3% and the Pt in feces ([1]; feces collected 0-2 h, mouse-1) was 0.190. The Pt in feces ([1]; feces collected 0-2 h, mouse-2) was 0.242, the Pt in feces ([1]; feces collected 0-2 h, mouse-3) was 0.148 and the Pt in feces ([1]; feces collected 2-4 h, mouse-1) was 2.468. The Pt in feces ([1]; feces collected 2-4 h, mouse-2) was 3.099, the Pt in feces ([1]; feces collected 2-4 h, mouse-3) was 2.222 and the Pt in feces ([1]; feces collected 4-8 h, mouse-1) was 4.452. The Pt in feces ([1]; feces collected 4-8 h, mouse-2) was 5.187, the Pt in feces ([1]; feces collected 4-8 h, mouse-3) was 4.005 and the Pt in feces ([1]; feces collected 8-12 h, mouse-1) was 2.646. The Pt in feces ([1]; feces collected 8-12 h, mouse-3) was 2.294, the “Percentage … to the faeces” value [1, 5] was 0.19 ± 0.046% and the “Percentage … to the urine” value [1, 5] was 15.46 ± 2.49%. The “Pt in urine, mean” value ([1]; urine collected 0-2 h, mean of 3 mice) was 15.456, the Pt in urine ([1]; urine collected 0-2 h, mouse-1) was 14.877 and the Pt in urine ([1]; urine collected 0-2 h, mouse-2) was 18.189. The Pt in urine ([1]; urine collected 0-2 h, mouse-3) was 13.302, the “Pt in urine, mean” value ([1]; urine collected 2-4 h, mean of 3 mice) was 10.936 and the Pt in urine ([1]; urine collected 2-4 h, mouse-1) was 10.576. For the same compound, the Pt in urine ([1]; urine collected 2-4 h, mouse-2) was 12.209, the Pt in urine ([1]; urine collected 2-4 h, mouse-3) was 10.023 and the “Pt in urine, mean” value ([1]; urine collected 4-8 h, mean of 3 mice) was 5.452. For the same compound, the Pt in urine ([1]; urine collected 4-8 h, mouse-1) was 5.332, the Pt in urine ([1]; urine collected 4-8 h, mouse-2) was 6.452 and the Pt in urine ([1]; urine collected 4-8 h, mouse-3) was 4.572. The “Pt in urine, mean” value ([1]; urine collected 8-12 h, mean of 3 mice) was 3.482, the Pt in urine ([1]; urine collected 8-12 h, mouse-1) was 3.482 and the Pt in urine ([1]; urine collected 8-12 h, mouse-2) was 4.062. For the same compound, the Pt in urine ([1]; urine collected 8-12 h, mouse-3) was 2.903, the “Body weight of mice (Supplementary Fig. 34)” value (“Body weight of mice” for short) ([4]; time 0 d) was 19.83 and 20.11 and 22.01 and the “Body weight of mice” value ([4]; time 3 d) was 18.72 and 20.66 and 21.22. The “Body weight of mice” value ([4]; time 6 d) was 17.7 and 19.43 and 21.14, the “Body weight of mice” value ([4]; time 9 d) was 17.17 and 18.45 and 20.33 and the “Body weight of mice” value ([4]; time 12 d) was 16.32 and 17.76 and 19.54. For the same compound, the “Body weight of mice” value ([4]; time 15 d) was 16.24 and 17.17 and 19.09, the “Percentage … to the faeces” value ([2]; 8-12 h) was 2.70 ± 0.44% and the Pt in urine ([2]; Fig.6g, 8-12 h, single mice) was 3.482 and 4.062 and 2.903. The Pt in feces ([2]; Fig.6h, 8-12 h, single mice) was 2.646 and 3.172 and 2.294, the Pt in feces ([2]; feces collected 8-12 h, mouse-2) was 3.172 and the Cytotoxicity [3] was “High”.
